Data published in PubChem BioAssay AID2060489 (Molecular Pharmacology Branch, DTP, NCI, 2025).
One block for each molecule: values may come before it.

Tested on: 922993-354-T-J3-PDC complex spheroids, viability
Assay: Anticancer human tumor 922993-354-T-J3-PDC patient-derived endometrial carcinoma cell line growth inhibition [GQUAD]
Settings: for IC50: curve of first compound; for viability, T/C: stronger effect = lower value
In short: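 Viability of tumor cells grown as complex spheroids with endothelial and stromal cells, exposed to drug combinations. Top concentration at or near clinical Cmax (else 10 microM), diluted in half-log increments.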

[1] = second compound 0.0316 µM, first compound 0.0316 µM
[2] = second compound 0.0316 µM, first compound 0.1 µM
[3] = second compound 0.0316 µM, first compound 0.316 µM
[4] = second compound 0.0316 µM, first compound 1 µM
[5] = second compound 0.0316 µM, first compound 3.16 µM
[6] = second compound 0.0316 µM, first compound 10 µM
[7] = second compound 0.1 µM, first compound 0.0316 µM
[8] = second compound 0.1 µM, first compound 0.1 µM
[9] = second compound 0.1 µM, first compound 0.316 µM
[10] = second compound 0.1 µM, first compound 1 µM
[11] = second compound 0.1 µM, first compound 3.16 µM
[12] = second compound 0.1 µM, first compound 10 µM
[13] = second compound 0.316 µM, first compound 0.0316 µM
[14] = second compound 0.316 µM, first compound 0.1 µM
[15] = second compound 0.316 µM, first compound 0.316 µM
[16] = second compound 0.316 µM, first compound 1 µM
[17] = second compound 0.316 µM, first compound 3.16 µM
[18] = second compound 0.316 µM, first compound 10 µM
[19] = second compound 1 µM, first compound 0.0316 µM
[20] = second compound 1 µM, first compound 0.1 µM
[21] = second compound 1 µM, first compound 0.316 µM
[22] = second compound 1 µM, first compound 1 µM
[23] = second compound 1 µM, first compound 3.16 µM
[24] = second compound 1 µM, first compound 10 µM
[25] = second compound 3.16 µM, first compound 0.0316 µM
[26] = second compound 3.16 µM, first compound 0.1 µM
[27] = second compound 3.16 µM, first compound 0.316 µM
[28] = second compound 3.16 µM, first compound 1 µM
[29] = second compound 3.16 µM, first compound 3.16 µM
[30] = second compound 3.16 µM, first compound 10 µM
[31] = second compound 10 µM, first compound 0.0316 µM
[32] = second compound 10 µM, first compound 0.1 µM
[33] = second compound 10 µM, first compound 0.316 µM
[34] = second compound 10 µM, first compound 1 µM
[35] = second compound 10 µM, first compound 3.16 µM
[36] = second compound 10 µM, first compound 10 µM
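Also: spheroids exposed to compounds for seven days.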
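For viability, T/C in this document: 100% = DMSO vehicle control viability.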

IC50 (second compound 0.0316 µM): > 10 µM
IC50 (second compound 0.1 µM): > 10 µM
IC50 (second compound 0.316 µM): < 0.0316 µM
IC50 (second compound 1 µM): < 0.0316 µM
IC50 (second compound 3.16 µM): < 0.0316 µM
IC50 (second compound 10 µM): 3.23 µM
SMILES: COc1ncnc(C2CC2)c1-c1ncc2cnn(Cc3ccc(-c4nc(C(F)(F)F)cn4C(C)C)cc3)c2n1 + Cc1cnc(CNC(=O)c2c(=O)c3ccc(N4CCCN(C)CC4)nc3n3c2sc2ccccc23)cn1
viability, T/C [1]: 98.1%
viability, T/C [2]: 72.7%
viability, T/C [3]: 80.5%
viability, T/C [4]: 48.3%
viability, T/C [5]: 59%
viability, T/C [6]: 63.4%
viability, T/C [7]: 67.8%
viability, T/C [8]: 44.2%
viability, T/C [9]: 45.6%
viability, T/C [10]: 44.3%
viability, T/C [11]: 51.4%
viability, T/C [12]: 70.4%
viability, T/C [13]: 41%
viability, T/C [14]: 34.5%
viability, T/C [15]: 41.8%
viability, T/C [16]: 49.3%
viability, T/C [17]: 51.3%
viability, T/C [18]: 52.7%
viability, T/C [19]: 44.5%
viability, T/C [20]: 44.6%
viability, T/C [21]: 41.6%
viability, T/C [22]: 46.3%
viability, T/C [23]: 54.9%
viability, T/C [24]: 67.1%
viability, T/C [25]: 40.9%
viability, T/C [26]: 41.7%
viability, T/C [27]: 50.3%
viability, T/C [28]: 49.2%
viability, T/C [29]: 43%
viability, T/C [30]: 55.7%
viability, T/C [31]: 48.6%
viability, T/C [32]: 47.7%
viability, T/C [33]: 52.6%
viability, T/C [34]: 49%
viability, T/C [35]: 53.3%
viability, T/C [36]: 40.1%

SMILES: C#Cc1c(F)ccc2cc(O)cc(-c3ncc4c(N5CC6CCC(C5)N6)nc(OCC56CCCN5CC(F)C6)nc4c3F)c12 (stereo unspecified) + Cc1[nH]c2ccc(F)cc2c1-c1nc2c3cccnc3c3ncccc3c2[nH]1
IC50 (second compound 0.0316 µM): > 10 µM
IC50 (second compound 0.1 µM): > 10 µM
IC50 (second compound 0.316 µM): > 10 µM
IC50 (second compound 1 µM): > 10 µM
IC50 (second compound 3.16 µM): > 10 µM
IC50 (second compound 10 µM): > 10 µM
viability, T/C [1]: 112%
viability, T/C [2]: 93.3%
viability, T/C [3]: 106%
viability, T/C [4]: 98.2%
viability, T/C [5]: 96%
viability, T/C [6]: 80.7%
viability, T/C [7]: 103%
viability, T/C [8]: 98.4%
viability, T/C [9]: 94.7%
viability, T/C [10]: 107%
viability, T/C [11]: 116%
viability, T/C [12]: 110%
viability, T/C [13]: 87%
viability, T/C [14]: 88.8%
viability, T/C [15]: 94%
viability, T/C [16]: 99.2%
viability, T/C [17]: 87.8%
viability, T/C [18]: 124%
viability, T/C [19]: 83.4%
viability, T/C [20]: 108%
viability, T/C [21]: 99.5%
viability, T/C [22]: 120%
viability, T/C [23]: 125%
viability, T/C [24]: 114%
viability, T/C [25]: 103%
viability, T/C [26]: 87.6%
viability, T/C [27]: 121%
viability, T/C [28]: 107%
viability, T/C [29]: 114%
viability, T/C [30]: 113%
viability, T/C [31]: 91.6%
viability, T/C [32]: 104%
viability, T/C [33]: 101%
viability, T/C [34]: 110%
viability, T/C [35]: 127%
viability, T/C [36]: 113%

IC50 (second compound 0.0316 µM): > 10 µM
IC50 (second compound 0.1 µM): 0.777 µM
IC50 (second compound 0.316 µM): 0.037 µM
IC50 (second compound 1 µM): 0.0642 µM
IC50 (second compound 3.16 µM): < 0.0316 µM
IC50 (second compound 10 µM): < 0.0316 µM
SMILES: CCCS(=O)(=O)Nc1ccc(F)c(C(=O)c2c[nH]c3ncc(-c4ccc(Cl)cc4)cc23)c1F + Cc1cnc(CNC(=O)c2c(=O)c3ccc(N4CCCN(C)CC4)nc3n3c2sc2ccccc23)cn1
viability, T/C [1]: 93.5%
viability, T/C [2]: 83.8%
viability, T/C [3]: 83.3%
viability, T/C [4]: 78.4%
viability, T/C [5]: 84.6%
viability, T/C [6]: 63.8%
viability, T/C [7]: 60.9%
viability, T/C [8]: 62.2%
viability, T/C [9]: 56.1%
viability, T/C [10]: 45.5%
viability, T/C [11]: 42.2%
viability, T/C [12]: 40%
viability, T/C [13]: 51.2%
viability, T/C [14]: 40.9%
viability, T/C [15]: 42.3%
viability, T/C [16]: 47.4%
viability, T/C [17]: 34.6%
viability, T/C [18]: 46.4%
viability, T/C [19]: 51.4%
viability, T/C [20]: 52.3%
viability, T/C [21]: 46.3%
viability, T/C [22]: 36.8%
viability, T/C [23]: 47.7%
viability, T/C [24]: 48.2%
viability, T/C [25]: 39.7%
viability, T/C [26]: 47.2%
viability, T/C [27]: 43.6%
viability, T/C [28]: 42%
viability, T/C [29]: 58%
viability, T/C [30]: 37.9%
viability, T/C [31]: 43.5%
viability, T/C [32]: 37%
viability, T/C [33]: 36.9%
viability, T/C [34]: 35.9%
viability, T/C [35]: 37.9%
viability, T/C [36]: 20.1%
